Experimental data: patent publication US7169414B2, “Antimicrobial agents isolated from aloe vera” (priority 1998, dated 2007)

System: bacterial growth
Assay: culture killing assays of known Aloe components
Assay type: cell-based
Conditions: purified extracts of known Aloe components
Experimental: Previously isolated and identified individual aloe products as antimicrobial products were studied to confirm that these compounds were not responsible for the anti-bacterial activity identified herein. Purified extracts of several known Aloe components were provided by Dr. I. Danhoff, including: Albarin, Awbarin, Anthraquinone, Aloin A, Aloin A & B, Aloe emodin, and Yellow sap components were tested in like assays.

Compound | inhibition of bacterial growth
O=C1c2c(O)cccc2C([C@@H]2O[C@H](CO)[C@@H](O)[C@H](O)[C@H]2O)c2cc(CO)cc(O)c21 (some centres unmarked) [Aloin A] | showed any inhibition of bacterial growth
O=C1c2ccccc2C(=O)c2ccccc21 [Anthraquinone] | only Aloin A and Aloe emodin showed any inhibition of bacterial growth
